The record followed here is ChEMBL document CHEMBL1201862, “PubChem BioAssay data set” (2004).

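Tested at 5 concentrations; 48 h exposure; 96-well plates; endpoints linearly interpolated, else capped at highest concentration. GI50 marks 50% less growth.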 Active and inactive are the calls of the source. Cut-off read from the data, not from the text of the source: active = GI50 up to about 1.1 µM and inactive = higher.

Test systems include DU-145; COLO 205; SK-MEL-2; SF-539; T47D; HOP-92; Malme-3M; UACC-62; RPMI-8226; NCI-H23; OVCAR-3; SK-MEL-28; ACHN; HCT-15; SF-268; NCI-H522; SK-OV-3; TK-10; HCC 2998; HT-29.
What all share (assay): NCI anticancer screen, dose series, 48 h

Take `O=C(CN1CCN(C(=O)OCc2ccccc2)CCN(CC(=O)N2CCCCC2)CCN(C(=O)OCc2ccccc2)CC1)N1CCCCC1`: the GI50 in the experiment on DU-145 was 21.4 µM (inactive); in the experiment on COLO 205 it was 11.9 µM (inactive); in the experiment with SK-MEL-2, 19.5 µM (inactive); with SF-539, 14.6 µM (inactive); in the experiment with T47D it was 17 µM (inactive); with HOP-92 it was 12.9 µM (inactive). Moreover, the GI50 was 8.38 µM (inactive) in the experiment on Malme-3M; 18.1 µM (inactive) in the experiment with UACC-62; 13.4 µM (inactive) with RPMI-8226; 20.7 µM (inactive) with NCI-H23; 10.7 µM (inactive) with OVCAR-3; 14.7 µM (inactive) in the experiment on SK-MEL-28. Also, the GI50 is 18.1 µM (inactive) in the experiment on ACHN; 17.9 µM with HCT-15; 15.8 µM (inactive) in the experiment on SF-268; 5.52 µM (inactive) in the experiment on NCI-H522; 27.7 µM (inactive) with SK-OV-3; 11.5 µM (inactive) in the experiment on TK-10. For the same compound, the GI50 in the experiment on HCC 2998 is 11.2 µM (inactive); in the experiment on HT-29, 7.46 µM (inactive).

In the case of `C=C1C(=O)O[C@@H]2C(=O)[C@@H](C)[C@@H]3C=CC(=O)[C@@]3(C)[C@@H](OC(=O)/C(C)=C\C)[C@H]12` [MULTISTATIN], the GI50 in the experiment on DU-145 was 1.57 µM (inactive); in the experiment with COLO 205, 0.237 µM (active); with SK-MEL-2, 2.86 µM (inactive); in the experiment with SF-539 it was 1.84 µM (inactive); with T47D it was 0.483 µM (active); in the experiment on HOP-92, 0.393 µM (active). The GI50 in the experiment with Malme-3M is 0.298 µM (active); with UACC-62, 1.25 µM (inactive); in the experiment with RPMI-8226 it was 0.327 µM (active); in the experiment with NCI-H23, 2.88 µM (inactive); in the experiment with OVCAR-3, 0.653 µM (active); with SK-MEL-28, 0.278 µM (active). Further, the GI50 in the experiment with ACHN is 0.212 µM (active); with HCT-15, 0.284 µM; in the experiment on SF-268, 1.69 µM (inactive); in the experiment with NCI-H522, 0.0883 µM (active); with SK-OV-3 it was 13.1 µM (inactive); with TK-10 it was 0.538 µM (active). Moreover, the GI50 in the experiment on HCC 2998 was 1.71 µM (inactive); in the experiment with HT-29, 0.371 µM (active).
